Measurements taken from patent US8496929B2, “Inotropic effects of antibodies on cardiac contraction” (priority 2002, dated 2013).
Entries after “also recorded” stand apart in the source; their conditions may differ.

Tests used:
[1] = molecular target: T1, digitalis-sensitive (Na++K+)-ATPase purified from dog kidney (Canis lupus familiaris, UniProt P50997); assay: (Na++K+)-ATPase activity, digitalis-sensitive enzyme; format: biochemical; conditions: dog enzyme 16 nM; 24-400 nM
T1 construct: Highly purified dog kidney (Na^++K^+)-ATPase was a gift from Dr. Jack Kyte; tissue gift from Dr. Jack Kyte; host or cells: dog kidney
Procedure: The enzymatic activity was determined as described previously (Kyte J., et al., (1987) Biochemistry, 26:8350-8360) with modifications. Briefly, purified rat or dog (Na^++K^+)-ATPase was incubated with or without Jianye or ouabain in the presence of 100 mM Na^+ for 30 min at room temperature. The reaction was initiated by adding 3 mM MgATP and 20 mM K^+ in a final volume of 0.25 ml at 37° C. for 30 min and terminated by adding 0.75 ml quench solution and 0.025 ml developer. The color was allowed to develop for 30 min at room temperature and the concentration of phosphate was then determined at 700 nm using a spectrophotometer.
To investigate whether the binding of Jianye affects (Na^++K^+)-ATPase activity, we measured (Na^++K^+)-ATPase (100 nM) activity in the presence of 100 mM Na^+, 20 mM K^+, 3 mM MgATP, and various concentrations of Jianye or ouabain. […] To exclude the possibility that the inability of Jianye to inhibit enzymatic activity may be due to the digitalis-resistant nature of rat (Na^++K^+)-ATPase (FIG. 3), we tested the effect of Jianye on the digitalis-sensitive (Na^++K^+)-ATPase (16 nM) purified from dog kidney.

[2] = molecular target: T2, digitalis-resistant rat (Na++K+)-ATPase (Rattus norvegicus, UniProt P06685); assay: (Na++K+)-ATPase activity, digitalis-resistant enzyme; format: biochemical; conditions: enzyme 100 nM; 24-400 nM test agent; 100 mM Na+, 20 mM K+, 3 mM MgATP
T2 construct: the SL vesicles (4.4 mg/ml) were titrated with 0.58 mg/ml of SDS in the presence of 2 mM ATP; from tissue; host or cells: rat heart muscle; enzyme purified from SL vesicles by SDS titration and sucrose step gradient
Procedure: (§1) Rat cardiac sarcolemmal (SL) vesicles were isolated from rat heart muscle by sucrose flotation method. The vesicles were tested with saponin and were predominately right-side-out in orientation. (Na^++K^+)-ATPase was purified as described previously (Kyte, J. (1971) Biochemistry, 246:4157-4165). Briefly, the SL vesicles (4.4 mg/ml) were titrated with 0.58 mg/ml of SDS in the presence of 2 mM ATP at 20° C. for 30 min. The SDS titrated fractions were then loaded on the top of a sucrose (W/W) step gradient constructed with 10 ml of 37.3% (bottom step), 20 ml of 28.8%, and 10 ml of 15% in a Ti 60 tube, and centrifuged at 40,000 rpm for 90 min. The fractions that contain (Na^++K^+)-ATPase (between 37.3 and 28.8% on the sucrose gradient) were carefully collected and sedimented at 40,000 rpm for 60 minutes. […]
The enzymatic activity was determined as described previously (Kyte J., et al., (1987) Biochemistry, 26:8350-8360) with modifications. […] The color was allowed to develop for 30 min at room temperature and the concentration of phosphate was then determined at 700 nm using a spectrophotometer.
To investigate whether the binding of Jianye affects (Na^++K^+)-ATPase activity, we measured (Na^++K^+)-ATPase (100 nM) activity in the presence of 100 mM Na^+, 20 mM K^+, 3 mM MgATP, and various concentrations of Jianye or ouabain. […]

(Na++K+)-ATPase = assay: [3H]ouabain binding to cardiac sarcolemmal vesicles; design: species or system rat; conditions: PB added to Jianye prior to [3H]ouabain
Procedure: as §1, with “minutes. The purified enzyme was resuspended in a sucrose (250 mM)/histidinium chloride (30 mM) buffer, pH 7.2, quick-frozen in liquid nitrogen and stored at −70° C.” for “minutes.”
Cardiac SL vesicles (3 mg/ml) were incubated with or without various concentrations of Jianye antibody for 30 minutes at room temperature in a medium containing 1 mM MgATP, 100 mM NaCl, and 10 mM Tris/HCl buffer (ph 7.4). […] An aliquot (20 or 50 Ml) was taken from each sample and radioactivity determined using a β-scintillation counter. The percent of [^3H]ouabain binding to the enzyme was then calculated. […]

rat ventricular myocytes = assay: Cell contraction and confocal Ca2+ transients in single ventricular myocytes; format: cell-based; conditions: PB (PB95, 20 μM) mixed with Jianye prior to administration
Procedure: Ventricular cardiac myocytes were isolated from adult Sprague-Dawley rats (2-3 months old; weight 225-300 g) using standard enzymatic techniques. Briefly, following anesthesia (sodium pentobarbital, 100 mg/kg), the heart was quickly removed from the chest and aortic perfused at constant pressure (100 cmH2O) at 37° C. for 3 minutes with a Ca^2+-free bicarbonate-based buffer containing 120 mM NaCl, 5.4 mM MgSO4, 1.2 mM NaH2PO4, 5.6 mM glucose, 20mM NaHCO3, and 5 mM taurine, in the presence of O2 (95%)-CO2 (5%). The enzymatic digestion was initiated by adding collagenase (Worthington Type II, 1 mg/ml) to the perfusion solution. Calcium (50 μM) was added to the enzyme solution when the heart became swollen. […]
Myocytes were placed on an inverted microscope (Zeiss model IM-35), superfused with HEPES-buffered solution at a flow rate of 1.8 ml/min, and electrically stimulated at 0.5 Hz at 23° C. Cell length was monitored from the bright field image (650 nm to 750 nm red light illumination) by an optical edge-tracking method using a photodiode array (model 1024 SAQ, Reticon) with a 3 ms time resolution. The contraction amplitude was measured as the percentage of shortening of cell length. […]
We next determined whether the binding of Jianye to the (Na^++K^+)-ATPase affects cardiac contractility. […]

Row | Compound | effect on dog (Na++K+)-ATPase enzymatic activity [1] | inhibition of ATP hydrolysis [1] | inhibition of rat (Na++K+)-ATPase activity [2] | [3H]ouabain labeling when Jianye is saturated by peptide blocker (effect on Jianye antagonism) ((Na++K+)-ATPase) | blocking of Jianye-induced increases in Ca2+ transients and contraction (rat ventricular myocytes) | blocking of Jianye-induced increases in Ca2+ transients and contraction (rat ventricular myocytes; listed as PB95)
1 | C[C@@H]1O[C@@H](O[C@H]2C[C@@H](O)[C@]3(CO)[C@H]4[C@H](O)C[C@]5(C)[C@@H](C6=CC(=O)OC6)CC[C@]5(O)[C@@H]4CC[C@]3(O)C2)[C@H](O)[C@H](O)[C@H]1O [ouabain] | reduced the enzymatic activity | up to 47% | did not inactivate | – | – | –
2 | KRQPRNPKTDKLVNE [PB] | – | – | – | not affected; also recorded: eliminated this antagonist effect | largely abolished; also recorded: completely abolished | largely impeded
